Reference: article PMC8267566, “Human GPR17 missense variants identified in metabolic disease patients have distinct downstream signaling profiles” (The Journal of Biological Chemistry, 2021)
Like-named read-outs stand apart in the source and are kept apart here.

Columns and labels:
Type in all cases: cell-based
hGPR17L-R248Q [1] = biological target: T1, hGPR17L-R248Q (Homo sapiens, UniProt Q13304, R248Q); assay: Calcium flux assay
T1 construct: expressed in transfected cells; host or cells: HEK293 (ATCC CRL-1573), transient transfection
T1 sequence (Q13304 whole entry R248Q): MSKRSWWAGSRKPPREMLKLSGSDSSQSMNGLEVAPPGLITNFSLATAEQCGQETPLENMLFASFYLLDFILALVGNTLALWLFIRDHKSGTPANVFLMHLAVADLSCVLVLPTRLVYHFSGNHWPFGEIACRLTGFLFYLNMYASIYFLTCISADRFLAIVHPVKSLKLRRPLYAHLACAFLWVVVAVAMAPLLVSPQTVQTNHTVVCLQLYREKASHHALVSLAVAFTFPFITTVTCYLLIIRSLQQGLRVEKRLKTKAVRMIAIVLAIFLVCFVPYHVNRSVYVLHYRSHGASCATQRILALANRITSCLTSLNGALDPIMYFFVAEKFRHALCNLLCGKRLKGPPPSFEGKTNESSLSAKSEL
Description: (§1) HEK293 cells were seeded at 20,000 cells/well into black, optical bottom, poly-D-lysine coated 96-well plates. The following day, cells were transiently transfected with pcDNA3-HA-hGPR17L or pcDNA3-HA-hGPR17L-variants using lipofectamine 3000. Twenty-four hours after transfection, the growth medium and transfection mix were decanted and 100 μl/well assay buffer (HBSS, 20 mM HEPES, pH 7.2) and 100 μl/well Calcium 6 loading dye (R8190; Molecular Devices) were added to the plate and incubated at 37 °C, 5% CO2 for 1 h 45 min. Plate was allowed to equilibrate to room temperature on the bench top for 30 min. MDL29,951 diluted in assay buffer was added to the wells and fluorescence (485 nm excitation, 525 nm emission, and 515 nm automatic emission cutoff) was measured using a Molecular Devices FlexStation3 (Molecular Devices). For experiments with pertussis toxin, cells were pretreated with 100 ng/ml pertussis toxin overnight and 100 ng/ml pertussis toxin was included with Calcium 6 loading dye for calcium flux assays.

hGPR17L-A131T [2] = biological target: T2, hGPR17L-A131T (Homo sapiens, UniProt Q13304, A131T); assay: Calcium flux assay
T2 construct: expressed in transfected cells; host or cells: HEK293 (ATCC CRL-1573), transient transfection
T2 sequence (Q13304 whole entry A131T): as the sequence (Q13304 whole entry R248Q) above, with A131T, Q248R counted along it
Description: as §1

hGPR17L-V96M [3] = biological target: T3, hGPR17L-V96M (Homo sapiens, UniProt Q13304, V96M); assay: Calcium flux assay
T3 construct: expressed in transfected cells; host or cells: HEK293 (ATCC CRL-1573), transient transfection
T3 sequence (Q13304 whole entry V96M): as the sequence (Q13304 whole entry R248Q) above, with V96M, Q248R counted along it
Description: as §1

hGPR17L-G136S [4] = biological target: T4, hGPR17L-G136S (Homo sapiens, UniProt Q13304, G136S); assay: Calcium flux assay; details: HEK293, read-out: calcium response, % of the maximum response observed for hGPR17L-WT
T4 construct: expressed in transfected cells; host or cells: HEK293 (ATCC CRL-1573), transient transfection
T4 sequence (Q13304 whole entry G136S): as the sequence (Q13304 whole entry R248Q) above, with G136S, Q248R counted along it
Description: as §1

hGPR17L-F43L [5] = biological target: T5, hGPR17L-F43L (Homo sapiens, UniProt Q13304, F43L); assay: Calcium flux assay
T5 construct: expressed in transfected cells; host or cells: HEK293 (ATCC CRL-1573), transient transfection
T5 sequence (Q13304 whole entry F43L): as the sequence (Q13304 whole entry R248Q) above, with F43L, Q248R counted along it
Description: as §1

hGPR17L-WT [6] = biological target: T6, hGPR17L-WT (Homo sapiens, UniProt Q13304); assay: Calcium flux assay
T6 construct: expressed in transfected cells; host or cells: HEK293 (ATCC CRL-1573), transient transfection of pcDNA3-HA-hGPR17L
T6 sequence (Q13304 whole entry): as the sequence (Q13304 whole entry R248Q) above, with Q248R counted along it
Description: as §1

hGPR17L-D105N [7] = biological target: T7, hGPR17L-D105N (Homo sapiens, UniProt Q13304, D105N); assay: Calcium flux assay
T7 construct: expressed in transfected cells; host or cells: HEK293 (ATCC CRL-1573), transient transfection
T7 sequence (Q13304 whole entry D105N): as the sequence (Q13304 whole entry R248Q) above, with D105N, Q248R counted along it
Description: as §1

hGPR17L-V103M = biological target: T8, hGPR17L-V103M (Homo sapiens, UniProt Q13304, V103M); assay: Calcium flux assay
T8 construct: expressed in transfected cells; host or cells: HEK293 (ATCC CRL-1573), transient transfection
T8 sequence (Q13304 whole entry V103M): as the sequence (Q13304 whole entry R248Q) above, with V103M, Q248R counted along it
Description: as §1

hGPR17L-R301H = biological target: T9, hGPR17L-R301H (Homo sapiens, UniProt Q13304, R301H); assay: Calcium flux assay
T9 construct: expressed in transfected cells; host or cells: HEK293 (ATCC CRL-1573)
T9 sequence (Q13304 whole entry R301H): as the sequence (Q13304 whole entry R248Q) above, with Q248R, R301H counted along it
Description: as §1

hGPR17L-G354V [8] = biological target: T10, hGPR17L-G354V (Homo sapiens, UniProt Q13304, G354V); assay: Calcium flux assay
T10 construct: expressed in transfected cells; host or cells: HEK293 (ATCC CRL-1573)
T10 sequence (Q13304 whole entry G354V): as the sequence (Q13304 whole entry R248Q) above, with Q248R, G354V counted along it
Description: as §1

hGPR17L-R248Q [9] = biological target: T1, hGPR17L-R248Q; assay: GloSensor stimulatory cAMP assay with pertussis toxin pretreatment
Description: (§2) For agonist-mediated stimulatory cAMP assays, HEK293 cells were seeded and transfected as noted above. Cells were treated with 100 ng/ml pertussis toxin overnight (Sigma-Aldrich P2980). Twenty-four hours posttransfection, growth medium and transfection mix were aspirated and replaced with 100 μl/well equilibration medium (2% Promega GloSensor cAMP reagent [E1291; Promega Corporation] in CO2-independent medium) containing 100 ng/ml pertussis toxin and incubated at room temperature for 2 h. Baseline luminescence was read every 2 min on a Molecular Devices SpectraMax iD5 plate reader (Molecular Devices) at ambient room temperature for 8 min. Subsequently, 10 μl/well MDL29,951 diluted in assay buffer (HBSS, 20 mM HEPES, pH 7.2) was added and luminescence was read every 2 min for 16 min. Within each well, the luminescence values for each time point were normalized to their average baseline luminescence values. The average luminescence values for the time points between 8 and 16 min after MDL29,951 addition were expressed as a percentage of the maximum response observed for hGPR17L-WT.

hGPR17L-A131T [10] = biological target: T2, hGPR17L-A131T; assay: as above
Description: as §2

hGPR17L-F43L [11] = biological target: T5, hGPR17L-F43L; assay: as above
Description: as §2

hGPR17L-G354V [12] = biological target: T10, hGPR17L-G354V; assay: as above
Description: as §2

hGPR17L-V96M [13] = biological target: T3, hGPR17L-V96M
Description: as §2

hGPR17L-G136S [14] = biological target: T4, hGPR17L-G136S
Description: as §2

hGPR17L-WT [15] = biological target: T6, hGPR17L-WT
Description: as §2

hGPR17L-D105N [16] = biological target: T7, hGPR17L-D105N
Description: as §2

[17] = read-out: Ca2+ EC50, HEK293, calcium mobilization
[18] = read-out: Stimulatory cAMP EC50

O=C(O)CCc1c(C(=O)O)[nH]c2cc(Cl)cc(Cl)c12 [MDL29,951]
Ca2+ Efficacy (% of WT Emax) (hGPR17L-R248Q [1]; HEK293): 103 ± 25 % of WT Emax
Ca2+ pEC50 ± SEM (hGPR17L-R248Q [1]; HEK293, calcium mobilization): 6.92 ± 0.02
EC50 (hGPR17L-R248Q [1]; [17]): 120 nM
Ca2+ Efficacy (% of WT Emax) (hGPR17L-A131T [2]; HEK293): 109 ± 8.9 % of WT Emax
Ca2+ pEC50 ± SEM (hGPR17L-A131T [2]; HEK293, calcium mobilization): 6.63 ± 0.08
EC50 (hGPR17L-A131T [2]; [17]): 230 nM
calcium mobilization in the presence of pertussis toxin (hGPR17L-V96M [3]): reduced calcium mobilization
fold less potent calcium response vs hGPR17L-WT (hGPR17L-V96M [3]; hGPR17L-V96M): 6–7 fold
reduction of efficacy of calcium response vs hGPR17L-WT (hGPR17L-V96M [3]; hGPR17L-V96M): approximately 70%
Ca2+ Efficacy (% of WT Emax) (hGPR17L-V96M [3]; hGPR17L-V96M, HEK293): 31 ± 4.7 % of WT Emax
Ca2+ pEC50 ± SEM (hGPR17L-V96M [3]; hGPR17L-V96M, HEK293, calcium mobilization): 6.27 ± 0.05
EC50 (hGPR17L-V96M [3]; read-out: Ca2+ EC50, hGPR17L-V96M, HEK293, calcium mobilization): 540 nM
Emax (hGPR17L-G136S [4]): 3.6 ± 1.3%
Ca2+ Efficacy (% of WT Emax) (hGPR17L-F43L [5]; HEK293): 97 ± 3.9 % of WT Emax
Ca2+ pEC50 ± SEM (hGPR17L-F43L [5]; HEK293, calcium mobilization): 7.25 ± 0.19
EC50 (hGPR17L-F43L [5]; [17]): 57 nM
calcium flux efficacy with pertussis toxin (% of control pretreatment) (hGPR17L-WT [6]): 82 ± 1.4 % of control pretreatment
calcium flux potency with pertussis toxin, fold shift in EC50 (hGPR17L-WT [6]): approximately 2.5 fold
Ca2+ Efficacy (% of WT Emax) (hGPR17L-WT [6]; hGPR17L-WT, HEK293): 100 % of WT Emax
maximum stimulation of calcium mobilization (hGPR17L-WT [6]; hGPR17L-WT, HEK293): 1.51 ± 0.14 Peak ΔF/F
Ca2+ pEC50 ± SEM (hGPR17L-WT [6]; hGPR17L-WT, HEK293, calcium mobilization): 7.09 ± 0.11
EC50 (hGPR17L-WT [6]; read-out: Ca2+ EC50, hGPR17L-WT, HEK293, calcium mobilization): 82 nM
calcium mobilization in the presence of pertussis toxin (hGPR17L-D105N [7]): reduced calcium mobilization
fold less potent calcium response vs hGPR17L-WT (hGPR17L-D105N [7]; hGPR17L-D105N): 6–7 fold
reduction of efficacy of calcium response vs hGPR17L-WT (hGPR17L-D105N [7]; hGPR17L-D105N): approximately 70%
Ca2+ Efficacy (% of WT Emax) (hGPR17L-D105N [7]; hGPR17L-D105N, HEK293): 28 ± 4.5 % of WT Emax
Ca2+ pEC50 ± SEM (hGPR17L-D105N [7]; hGPR17L-D105N, HEK293, calcium mobilization): 6.21 ± 0.11
EC50 (hGPR17L-D105N [7]; read-out: Ca2+ EC50, hGPR17L-D105N, HEK293, calcium mobilization): 620 nM
Ca2+ Efficacy (% of WT Emax) (hGPR17L-V103M; HEK293): 119 ± 8.4 % of WT Emax
Ca2+ pEC50 ± SEM (hGPR17L-V103M; HEK293, calcium mobilization): 6.66 ± 0.09
EC50 (hGPR17L-V103M; [17]): 220 nM
Ca2+ Efficacy (% of WT Emax) (hGPR17L-R301H; HEK293): 85 ± 3.6 % of WT Emax
Ca2+ pEC50 ± SEM (hGPR17L-R301H; HEK293, calcium mobilization): 6.74 ± 0.14
EC50 (hGPR17L-R301H; [17]): 180 nM
Ca2+ Efficacy (% of WT Emax) (hGPR17L-G354V [8]; HEK293): 92 ± 2.6 % of WT Emax
Ca2+ pEC50 ± SEM (hGPR17L-G354V [8]; HEK293, calcium mobilization): 7.05 ± 0.29
EC50 (hGPR17L-G354V [8]; [17]): 89 nM
Stimulatory cAMP pEC50 ± SEM (hGPR17L-R248Q [9]): 5.22 ± 0.01
Stimulatory cAMP Efficacy (% of WT Emax) (hGPR17L-R248Q [9]; hGPR17L-R248Q, HEK293, 100 ng/ml pertussis toxin overnight): 41 ± 1.7 % of WT Emax
EC50 (hGPR17L-R248Q [9]; [18]): 6100 nM
Stimulatory cAMP pEC50 ± SEM (hGPR17L-A131T [10]): 4.72 ± 0.05
loss of potency, fold shift in EC50 vs hGPR17L-WT (stimulatory cAMP) (hGPR17L-A131T [10]): 3–7 fold
Stimulatory cAMP Efficacy (% of WT Emax) (hGPR17L-A131T [10]; hGPR17L-A131T, HEK293, 100 ng/ml pertussis toxin overnight): 105 ± 21 % of WT Emax
EC50 (hGPR17L-A131T [10]; [18]): 19000 nM
Stimulatory cAMP pEC50 ± SEM (hGPR17L-F43L [11]): 5.21 ± 0.13
Stimulatory cAMP Efficacy (% of WT Emax) (hGPR17L-F43L [11]; hGPR17L-F43L, HEK293, 100 ng/ml pertussis toxin overnight): 99 ± 20 % of WT Emax
EC50 (hGPR17L-F43L [11]; [18]): 6200 nM
Stimulatory cAMP pEC50 ± SEM (hGPR17L-G354V [12]): 4.88 ± 0.12
Stimulatory cAMP Efficacy (% of WT Emax) (hGPR17L-G354V [12]; hGPR17L-G354V, HEK293, 100 ng/ml pertussis toxin overnight): 105 ± 23 % of WT Emax
EC50 (hGPR17L-G354V [12]; [18]): 14000 nM
stimulatory cAMP response (hGPR17L-V96M [13]): unable to promote stimulatory cAMP responses
stimulatory cAMP response (hGPR17L-G136S [14]): unable to promote stimulatory cAMP responses
Stimulatory cAMP Efficacy (% of WT Emax) (hGPR17L-WT [15]): 100 % of WT Emax
Stimulatory cAMP pEC50 ± SEM (hGPR17L-WT [15]): 5.18 ± 0.04
maximum stimulatory cAMP response (hGPR17L-WT [15]): 1.21 ± 0.24 ΔRLU/RLU
EC50 (hGPR17L-WT [15]; [18]): 6600 nM
stimulatory cAMP response (hGPR17L-D105N [16]): unable to promote stimulatory cAMP responses
